What all share (assay type): functional
Assay [1] has as its system Nakaseomyces glabratus. Nature of the assay: Antifungal activity against Candida glabrata 06-3168 obtained from patient on compound therapy by M27-A2 method.
Assay [2] has as its system Nakaseomyces glabratus. The assay can be described thus: Antifungal activity against Candida glabrata 06-3169 harboring […] T1896G and D632E mutant obtained from patient on compound therapy by M27-A2 method.
Assay [3] has as its system Nakaseomyces glabratus. The assay can be described thus: Antifungal activity against Candida glabrata 06-3170 harboring […] T1896G and D632E mutant obtained from patient on compound therapy by M27-A2 method.
Assay [4] relates to Pichia kudriavzevii. Nature of the assay: Antifungal activity against Candida krusei obtained from patient with acute myeloid leukemia.

Data on 6 compounds can be found in ChEMBL document CHEMBL1275421, “Reduced Candida glabrata susceptibility secondary to an FKS1 mutation developed during candidemia treatment” (2008).

By MIC is commonly meant the least concentration at which growth counts as inhibited. A high value points to weaker potency.

Converted amounts (≈) assume the structure as drawn. *1 amine or outer side, *2 acyl side, *3 side chain or, on linkers, in order; H or OH if unused. Where a SMILES comes first, the peptide text is derived from it. Bridges are numbered along the chain shown (N, C = ends). [ ]: non-standard residue; d: D form. The star is where a group is joined. hTyr(3S-OH,4S-OH,3'-OSO3H) = N[C@H](C(=O)O)[C@H](O)[C@@H](O)c1ccc(O)c(OS(=O)(=O)O)c1; pTerphenylCO(4''-OnC5H11) = CCCCCOc1ccc(-c2ccc(-c3ccc(C(=O)*)cc3)cc2)cc1; Orn(4R-OH,5R-OH) = O=C([C@H](C[C@@H](O)[C@@H](O)N[*:3])N[*:1])[*:2]; hTyr(3S-OH,4S-OH) = N[C@H](C(=O)O)[C@H](O)[C@@H](O)c1ccc(O)cc1; Pro(3S-OH,4S-Me) = C[C@H]1CN[C@H](C(=O)O)[C@H]1O; X1 = CCCCCOc1ccc(-c2cc(-c3ccc(C(=O)*)cc3)no2)cc1; Gln(3R-OH) = NC(=O)C[C@@H](O)[C@H](N)C(=O)O; Hyp = O=C(O)[C@@H]1C[C@@H](O)CN1

As to `C[C@@H]1[C@H](O)[C@@H](C)/C=C/C=C/C=C/C=C/C=C/C=C/C=C/[C@H](O[C@@H]2O[C@H](C)[C@@H](O)[C@H](N)[C@@H]2O)C[C@@H]2O[C@](O)(C[C@@H](O)C[C@@H](O)[C@H](O)CC[C@@H](O)C[C@@H](O)CC(=O)O[C@H]1C)C[C@H](O)[C@H]2C(=O)O` [AMPHOTERICIN B], the minimum inhibitory concentration (MIC) in assay [1], in assay [2] and in assay [3] was 0.125 µg/mL (≈ 0.135 µM) throughout.
Turning to `CCCCCOc1ccc(-c2ccc(-c3ccc(C(=O)N[C@H]4C[C@@H](O)[C@@H](O)NC(=O)[C@@H]5[C@@H](O)[C@@H](C)CN5C(=O)[C@H]([C@@H](C)O)NC(=O)[C@H]([C@H](O)[C@@H](O)c5ccc(O)cc5)NC(=O)[C@@H]5C[C@@H](O)CN5C(=O)[C@H]([C@@H](C)O)NC4=O)cc3)cc2)cc1` [ANIDULAFUNGIN] ({pTerphenylCO(4''-OnC5H11)}-[Orn(4R-OH,5R-OH)]T[Hyp][hTyr(3S-OH,4S-OH)]T[Pro(3S-OH,4S-Me)]; lactam 1-C), the MIC was 0.03 µg/mL (≈ 0.0263 µM) in assay [1], more than 2 µg/mL in assay [2] and more than 2 µg/mL in assay [3].
With `CC[C@H](C)C[C@H](C)CCCCCCCCC(=O)N[C@H]1C[C@@H](O)[C@@H](NCCN)NC(=O)[C@@H]2[C@@H](O)CCN2C(=O)[C@H]([C@H](O)CCN)NC(=O)[C@H]([C@H](O)[C@@H](O)c2ccc(O)cc2)NC(=O)[C@@H]2C[C@@H](O)CN2C(=O)[C@H]([C@@H](C)O)NC1=O` [CASPOFUNGIN], the MIC was 0.06 µg/mL (≈ 0.0549 µM) in assay [1], more than 2 µg/mL in assay [2], more than 2 µg/mL in assay [3] and 2 µg/mL (≈ 1.83 µM) in assay [4].
On to `OC(Cn1cncn1)(Cn1cncn1)c1ccc(F)cc1F` [FLUCONAZOLE], for which the MIC in assay [1], in assay [2] and in assay [3] was 1 µg/mL (≈ 3.27 µM) throughout.
On to `CCCCCOc1ccc(-c2cc(-c3ccc(C(=O)N[C@H]4C[C@@H](O)[C@@H](O)NC(=O)[C@@H]5[C@@H](O)[C@@H](C)CN5C(=O)[C@H]([C@H](O)CC(N)=O)NC(=O)[C@H]([C@H](O)[C@@H](O)c5ccc(O)c(OS(=O)(=O)O)c5)NC(=O)[C@@H]5C[C@@H](O)CN5C(=O)[C@H]([C@@H](C)O)NC4=O)cc3)no2)cc1` [MICAFUNGIN] (X1-[Orn(4R-OH,5R-OH)]T[Hyp][hTyr(3S-OH,4S-OH,3'-OSO3H)][Gln(3R-OH)][Pro(3S-OH,4S-Me)]; lactam 1-C), for which the values for the MIC in assay [1], in assay [2] and in assay [3] were 0.06 µg/mL (≈ 0.0472 µM), more than 2 µg/mL and more than 2 µg/mL, respectively.
For `C[C@@H](c1ncncc1F)[C@](O)(Cn1cncn1)c1ccc(F)cc1F` [VORICONAZOLE], the minimal inhibitory concentration (MIC) in assay [1], in assay [2] and in assay [3] was 0.03 µg/mL (≈ 0.0859 µM) in each case.
